Experimental data as given in BindingDB's records for doi:10.1021/jm970856n (Novartis Pharma, 1998).

Biological target: T1, SHC-transforming protein 2 (Homo sapiens, UniProt P98077)
T1 sequence (P98077 whole entry): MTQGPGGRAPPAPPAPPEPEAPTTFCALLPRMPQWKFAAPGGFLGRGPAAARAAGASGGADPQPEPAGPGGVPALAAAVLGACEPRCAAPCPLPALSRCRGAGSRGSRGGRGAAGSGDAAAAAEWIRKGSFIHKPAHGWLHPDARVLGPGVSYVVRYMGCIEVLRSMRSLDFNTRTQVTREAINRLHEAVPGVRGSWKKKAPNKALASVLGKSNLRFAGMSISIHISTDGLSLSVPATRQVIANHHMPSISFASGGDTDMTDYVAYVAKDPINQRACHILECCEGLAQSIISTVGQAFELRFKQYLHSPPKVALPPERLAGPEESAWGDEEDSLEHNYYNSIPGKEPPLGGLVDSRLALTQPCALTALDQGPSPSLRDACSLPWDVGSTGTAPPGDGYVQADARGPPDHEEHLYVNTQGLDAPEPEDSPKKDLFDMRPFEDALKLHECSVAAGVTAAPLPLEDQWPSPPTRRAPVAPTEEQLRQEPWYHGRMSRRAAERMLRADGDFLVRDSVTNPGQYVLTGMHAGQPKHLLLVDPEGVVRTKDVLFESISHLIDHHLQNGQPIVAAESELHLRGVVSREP
Assay: Inhibition of binding to SH2 domain of SHC-PTB

Structure (SMILES): NC(=O)CC(NC(=O)C1(NC(=O)C(N)Cc2ccc(OP(=O)(O)O)c(N)c2)CCCCC1)C(N)=O (stereo unspecified) [Phosphoric acid mono-(2-amino-4-{2-amino-2-[1-(1,2-dicarbamoyl-ethylcarbamoyl)-cyclohexylcarbamoyl]-ethyl}-phenyl) ester]
- IC50: > 5 µM
